Holding throughout (experiment): NCI anticancer screen, dose series, 48 h
In test [1] the test system is CCRF-CEM leukemia.
The test system of test [2] is EKVX NSCLC.
Test [3] concerns HCC-2998 colon.
Test [4] concerns HL-60(TB) leukemia.
For test [5], the system named is HOP-62 NSCLC.
Test [6] has as its system MCF7 breast.
In test [7] the test system is OVCAR-4 ovarian.
The subject of test [8] is SF-539 CNS.
The subject of test [9] is TK-10 renal.
Test [10] concerns UACC-257 melanoma.

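Interpolation was linear, between the two tested concentrations surrounding the appropriate level; five concentrations were tested over 48 hours in 96-well plates. At the GI50, growth is halved. Definition used: TGI = concentration required for complete inhibition of growth.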 Where only a bound is given, the exact number is not on record here.

In the case of `Oc1ccccc1C=Nc1nc(SCc2ccccc2)nc2[nH]ncc12`, the GI50 was 45700 nM in test [1]; over 100 µM in [2]; 47900 nM in test [3]; 26100 nM in test [4]; over 100000 nM in test [5]; 39.1 µM in [6]. The GI50 was over 100000 nM in test [7], over 100000 nM in test [8], 23.9 µM in test [9] and 52.3 µM in test [10]. The TGI in test [1] was over 100 µM; in test [2], over 100 µM; in test [3], over 100 µM; in test [4], 95.7 µM; in test [5], over 100 µM; in test [6], over 100 µM. In addition, the TGI in test [7], in test [8], in test [9] and in [10] was over 100 µM throughout.
Take `CC(NCCC(=O)N(CCC(=O)N(CCC(=O)N(CCC(=O)N(CCC(=O)N(CCC(=O)N(CCC(=O)N(CCC(=O)N(CCC(=O)N(CCC(=O)O)[C@H](C)c1ccccc1)[C@H](C)c1ccccc1)[C@H](C)c1ccccc1)[C@H](C)c1ccccc1)[C@H](C)c1ccccc1)[C@H](C)c1ccccc1)[C@H](C)c1ccccc1)[C@H](C)c1ccccc1)[C@H](C)c1ccccc1)c1ccccc1` (some centres undefined): the GI50 in [1] is 1890 nM; in test [2], 3.73 µM; in test [3], 1380 nM; in test [4], 2440 nM; in test [5], 1990 nM; in test [6] it was 2.03 µM. Further, the GI50 in [7] was 2480 nM; in test [8] it was 1490 nM; in test [9] it was 3.38 µM; in [10] it was 1.76 µM. The TGI was over 19.5 µM in test [1]; over 75 µM in test [2]; 3.11 µM in test [3]; 13.9 µM in [4]; 6.93 µM in test [5]; over 26.1 µM in test [6]. Besides, the TGI in [7] was over 68.7 µM; in [8] it was 3.67 µM; in [9], 23.2 µM; in test [10], 4.15 µM.
Turning to `CNCCNc1c2c(c(NCCNC)c3[nH]ccc13)C(=O)c1ccccc1C2=O`, the GI50 in test [1] is 14.8 nM; in test [2] it was 1.33 µM; in [3] it was 203 nM; in test [4], 195 nM; in [5] it was 135 nM; in test [6], 0.154 µM. Besides, the GI50 is 1660 nM in test [7], 458 nM in [8], 0.183 µM in test [9] and 1.72 µM in [10]. In addition, the TGI in [1] is 0.203 µM; in test [2], 4.13 µM; in [3], 0.649 µM; in [4] it was 0.838 µM; in [5], 0.543 µM; in [6] it was 1.19 µM. Moreover, the TGI was found to be 5.11 µM in test [7], 1.07 µM in test [8], 0.502 µM in test [9] and 7.04 µM in test [10].
In the case of `COc1cc(NC(=O)CSc2nc3ccc(C)cc3c(=O)n2Cc2ccccc2)cc(OC)c1OC`, the GI50 in [1] is over 100000 nM; in [2] it was 8.59 µM; in [3] it was over 100000 nM; in test [4], over 100000 nM; in test [5], 2300 nM; in test [6] it was 9.98 µM. Besides, the GI50 is 3410 nM in test [7], 3460 nM in [8], 5.58 µM in test [9] and 4.86 µM in test [10]. Besides, the TGI is over 100 µM in [1]; over 100 µM in test [2]; over 100 µM in [3]; over 100 µM in [4]; 5.8 µM in [5]; over 100 µM in test [6]. The TGI in test [7] was 33.3 µM; in test [8] it was 13.8 µM; in test [9], 92.3 µM; in test [10] it was over 100 µM.
As for `COc1ccc(/C=C(\C#N)n2nnc3ccccc32)cc1`, the GI50 was 295 nM in [1]; 0.431 µM in test [2]; 458 nM in test [3]; 126 nM in test [4]; 486 nM in [5]; 0.328 µM in test [6]. Also, the GI50 in test [7] was 615 nM; in test [8], 252 nM; in test [9] it was 2.22 µM; in test [10] it was 4.92 µM. Also, the TGI is over 100 µM in test [1]; over 100 µM in test [2]; 7.11 µM in [3]; 25.8 µM in test [5]; over 100 µM in [6]; over 82.5 µM in test [7]. The TGI in [8] was 0.869 µM; in [9], 58.6 µM; in test [10], over 100 µM.
For `COc1ccc(-n2cc(-c3cc(OC)c(OC)c(OC)c3)nc2SCc2ccccc2)cc1OC`, the GI50 is over 100000 nM in test [1]; 57.9 µM in test [2]; over 100000 nM in [3]; 48200 nM in test [4]; over 100000 nM in [5]; 34.6 µM in test [6]. Besides, the GI50 in test [7] is over 81400 nM; in [8], over 100000 nM; in test [9], over 100 µM; in test [10] it was 77.9 µM. The TGI in test [1], in test [2], in [3], in test [4], in test [5] and in test [6] was over 100 µM each time. The TGI in test [7], in test [8], in test [9] and in test [10] was over 100 µM each time.
As for `CCN(CC)CCn1c2ccccc2c(=O)c2c(O)ccc(O)c21`, the TGI in test [1] was over 90.2 µM; in test [2], over 46.4 µM; in [3], over 57.7 µM; in [4] it was 46.8 µM; in [5] it was 86.5 µM; in test [6] it was 40.1 µM. In addition, the TGI in test [7] is 34.5 µM; in [8], 50.3 µM; in [9], 49.2 µM; in test [10] it was 60.6 µM.

Values taken from PubChem BioAssay (NCI).
